The source of these data is patent publication EP3382005A2, “EX VIVO MODEL FOR NEURODEGENERATIVE DISEASES” (Neuro-Bio Ltd, priority 2017, dated 2018).

In one series the test system is PC12 cells. In words: Cell viability test.
In series [1] the target is T1, alpha7 nicotinic receptor (Rattus norvegicus, UniProt Q05941).
T1 construct: endogenous in cells; host or cells: PC12 cells
The experiment in a line: Calcium influx test in PC12 cells. The format is cell-based. To be noted: compound alone, higher doses 1 µM to 10 µM.

Square brackets hold non-standard residues; d marks the D form. Peptide text beside a SMILES is read from it. Phe(4-COOH) = N[C@@H](Cc1ccc(C(=O)O)cc1)C(=O)O; 2Nal = N[C@@H](Cc1ccc2ccccc2c1)C(=O)O; cisHyp = O=C(O)[C@@H]1C[C@H](O)CN1

T1 sequence (Q05941 23-502): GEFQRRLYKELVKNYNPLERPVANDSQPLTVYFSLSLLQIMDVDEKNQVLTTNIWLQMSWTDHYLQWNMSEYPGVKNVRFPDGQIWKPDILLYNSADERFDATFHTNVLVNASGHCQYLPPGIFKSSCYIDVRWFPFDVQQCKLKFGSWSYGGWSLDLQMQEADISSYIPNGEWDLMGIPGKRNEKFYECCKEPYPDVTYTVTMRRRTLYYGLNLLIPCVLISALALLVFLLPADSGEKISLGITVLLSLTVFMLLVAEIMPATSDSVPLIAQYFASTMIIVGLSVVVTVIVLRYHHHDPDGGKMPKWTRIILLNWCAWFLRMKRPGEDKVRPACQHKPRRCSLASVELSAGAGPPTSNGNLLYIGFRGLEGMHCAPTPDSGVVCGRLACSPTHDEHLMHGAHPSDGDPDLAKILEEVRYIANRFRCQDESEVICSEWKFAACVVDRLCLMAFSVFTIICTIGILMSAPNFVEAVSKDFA

As to `CC(=O)N[C@@H](Cc1ccc2ccccc2c1)C(=O)N[C@@H](Cc1ccc(C(=O)O)cc1)C(=O)N1C[C@@H](O)C[C@H]1C(N)=O` [Tri01, 4-((S)-2-((S)-2-acetamido-3-(naphthalen-2-yl)propanamido)-3-((2S,4S)-2-carbamoyl-4-hydroxypyrrolidin-1-yl)-3-oxopropyl)benzoate] (Ac-[2Nal]-[Phe(4-COOH)]-[cisHyp]-NH2), the PC12 cell viability result in the series with PC12 cells (compound alone, 0.1µM to 10µM) is “toxic in a concentration-dependent manner”; in the series on PC12 cells (in the presence of T30 1µM), “potentiates the toxicity induced by T30”. In addition, the “calcium influx by the specific alpha7 agonist PNU282987” value in series [1] was “inactive”.
